Experimental data from patent US5876751A, “Antispasmodic and antinflammatory composition and a process for the manufacture thereof” (priority 1996, dated 1999).
Counter-ions that a name gives are not always drawn. Like-named read-outs stand apart in the source and are kept apart here.

Key:
rat colon = assay: Inhibition of acetylcholine-induced contraction in isolated distal portion of colon of rat, without and with diclofenac sodium; settings: for inhibition at 0.01 µg/mL / inhibition at 0.02 µg/mL / inhibition at 0.04 µg/mL / inhibition at 0.08 µg/mL / inhibition at 0.0005 µg/mL / inhibition at 0.001 µg/mL / inhibition at 0.002 µg/mL: Rattus norvegicus, Ach 100 ng/ml; for inhibition at 0.01 µg/mL: pitofenone HCl 10 ng/ml; for inhibition at 0.02 µg/mL: pitofenone HCl 20 ng/ml; for inhibition at 0.04 µg/mL: pitofenone HCl 40 ng/ml; for inhibition at 0.08 µg/mL: pitofenone HCl 80 ng/ml; for inhibition at 0.0005 µg/mL: fenpiverinium bromide 0.5 ng/ml; for inhibition at 0.001 µg/mL: fenpiverinium bromide 1.0 ng/ml; for inhibition at 0.002 µg/mL: fenpiverinium bromide 2.0 ng/ml
Procedure: In order to see the effect of NSAID on the antispasmodic activity of pitifenone hydrochloride and fenpiverinium bromide an experiment was conducted on standard isolated tissues of experimental animal. The tissue chosen for the experiment was the distal portion of colon of rat. The NSAID selected for the experiment was diclofenac sodium. The percentage inhibition of acetylcholine-induced contraction (at dosage level of 100 ng/m) was studied with varied concentration of pitofenone hydrochloride in the dose range of 10-80 nano gm/ml. […] The data obtained in the experiment is collected in Table -2.

[1] = cited from earlier work
[2] = Brogden et al, Drugs 20;24-48 (1980); cited from earlier work
[3] = in vivo; cited from earlier work
[4] = before diclofenac Na, read-out: Percentage inhibition of Ach induced contraction, before diclofenac Na
[5] = with diclofenac sodium 20 μg/ml, read-out: Percentage inhibition of Ach induced contraction, after diclofenac Na
[6] = with diclofenac sodium (20 μgm/ml), read-out: Percentage inhibition of Ach induced contraction, after diclofenac Na

Which results are given for `O=C(O)Cc1ccccc1Nc1c(Cl)cccc1Cl` [diclofenac]?
potentiation of antispasmodic action of pitofenone hydrochloride and fenpiverinium bromide (rat colon; general statement of findings): potentiates the antispasmodic action of pitofenone hydrochloride and fenpiverinium bromide several times; action with pitofenone hydrochloride as an antispasmodic (rat colon; rat colon, diclofenac sodium 20 μg/ml, pitofenone HCl 10-80 ng/ml): synergistic (potentiating) action; action with fenpiverinium bromide as an antispasmodic (rat colon; rat colon, diclofenac sodium 20 μgm/ml, fenpiverinium bromide 0.5-2 ng/ml): synergistic (potentiating) action; use in painful non-rheumatic syndromes ([1]; biliary colic (Grossi et al.), acute renal colic (Garcia Alonso et al.)): of use in painful non-rheumatic syndromes; reported pharmacological activity [2]: anti inflammatory activity, analgesic activity and anti pyretic activity

With `COC(=O)c1ccccc1C(=O)c1ccc(OCCN2CCCCC2)cc1` [Pitofenone Hcl, pitofenone hydrochloride] as the compound, how does the inhibition at 0.01 µg/mL (rat colon; [4]) read?
The inhibition at 0.01 µg/mL was 0%.

And the inhibition at 0.01 µg/mL (rat colon; [5])?
Its inhibition at 0.01 µg/mL is 100%.

And the inhibition at 0.02 µg/mL (rat colon; [4])?
The inhibition at 0.02 µg/mL was 0%.

And the inhibition at 0.02 µg/mL (rat colon; [5])?
The inhibition at 0.02 µg/mL was 100%.

What about the inhibition at 0.04 µg/mL (rat colon; [4]) of the same compound?
Its inhibition at 0.04 µg/mL is 0%.

And the inhibition at 0.04 µg/mL (rat colon; [5])?
The inhibition at 0.04 µg/mL was 100%.

And the inhibition at 0.08 µg/mL (rat colon; [4])?
The inhibition at 0.08 µg/mL was 20.2%.

And the inhibition at 0.08 µg/mL (rat colon; [5])?
The inhibition at 0.08 µg/mL was 100%.

Which inhibition at 0.0005 µg/mL (rat colon; [4]) does the source give for `C[N+]1(CCC(C(N)=O)(c2ccccc2)c2ccccc2)CCCCC1` [Fenpiverinium Bromide, fenpiverinium bromide] here?
Its inhibition at 0.0005 µg/mL is 43.8%.

What about the inhibition at 0.0005 µg/mL (rat colon; [6]) of the same compound?
The inhibition at 0.0005 µg/mL was 100%.

And the inhibition at 0.001 µg/mL (rat colon; [4])?
Its inhibition at 0.001 µg/mL is 78.7%.

What about the inhibition at 0.001 µg/mL (rat colon; [6]) of the same compound?
The inhibition at 0.001 µg/mL was 100%.

What about the inhibition at 0.002 µg/mL (rat colon; [4]) of the same compound?
Its inhibition at 0.002 µg/mL is 100%.

And the inhibition at 0.002 µg/mL (rat colon; [6])?
The inhibition at 0.002 µg/mL was 100%.

What does the source list for `O=C(O)Cc1ccccc1Nc1c(Cl)cccc1Cl` [diclofenac sodium]?
side effects vs pethidine intramuscular ([1]; intramuscular, acute renal colic): fewer side effects; effectiveness in the management of acute renal colic vs pethidine intramuscular ([1]; intramuscular): more effective than narcotic analgesic like pethidine intramuscular

With `Cc1c(N(C)CS(=O)(=O)O)c(=O)n(-c2ccccc2)n1C` [Analgin] as the compound, how does the bone marrow depression [3] read?
Its bone marrow depression is “implicated in causing bone marrow depression”.
